The source of these data is US10370366B2 (Flatley Discovery Lab, LLC, priority 2013, dated 2019).

For this test, the target named is T1, human F508del CFTR (Homo sapiens, UniProt P13569, DEL508-508).
T1 construct: expressed in transfected cells; host or cells: Fisher Rat Thyroid (FRT) cells
The test is described as follows: CFTR-YFP High Throughput Assay. Type of test: cell-based. To be noted: FRT cells expressing human F508del CFTR and YFP; for Emax: EMax normalized to the positive control, read-out: % Efficacy. Summed up:
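FRT cells stably co-expressing human F508del CFTR and halide-sensitive YFP-H148Q/I152L; for correction, compound (2 nM-40 μM) incubated 24-26 h at 37° C, washed, then stimulated 60-120 min at RT with 20 μM forskolin plus 30 μM potentiator P3. Iodide-induced YFP quench (Ex 500/Em 540 nm) recorded; quench rates least-squares fitted.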

T1 sequence (P13569 with tags, fused parts or gaps DEL508-508): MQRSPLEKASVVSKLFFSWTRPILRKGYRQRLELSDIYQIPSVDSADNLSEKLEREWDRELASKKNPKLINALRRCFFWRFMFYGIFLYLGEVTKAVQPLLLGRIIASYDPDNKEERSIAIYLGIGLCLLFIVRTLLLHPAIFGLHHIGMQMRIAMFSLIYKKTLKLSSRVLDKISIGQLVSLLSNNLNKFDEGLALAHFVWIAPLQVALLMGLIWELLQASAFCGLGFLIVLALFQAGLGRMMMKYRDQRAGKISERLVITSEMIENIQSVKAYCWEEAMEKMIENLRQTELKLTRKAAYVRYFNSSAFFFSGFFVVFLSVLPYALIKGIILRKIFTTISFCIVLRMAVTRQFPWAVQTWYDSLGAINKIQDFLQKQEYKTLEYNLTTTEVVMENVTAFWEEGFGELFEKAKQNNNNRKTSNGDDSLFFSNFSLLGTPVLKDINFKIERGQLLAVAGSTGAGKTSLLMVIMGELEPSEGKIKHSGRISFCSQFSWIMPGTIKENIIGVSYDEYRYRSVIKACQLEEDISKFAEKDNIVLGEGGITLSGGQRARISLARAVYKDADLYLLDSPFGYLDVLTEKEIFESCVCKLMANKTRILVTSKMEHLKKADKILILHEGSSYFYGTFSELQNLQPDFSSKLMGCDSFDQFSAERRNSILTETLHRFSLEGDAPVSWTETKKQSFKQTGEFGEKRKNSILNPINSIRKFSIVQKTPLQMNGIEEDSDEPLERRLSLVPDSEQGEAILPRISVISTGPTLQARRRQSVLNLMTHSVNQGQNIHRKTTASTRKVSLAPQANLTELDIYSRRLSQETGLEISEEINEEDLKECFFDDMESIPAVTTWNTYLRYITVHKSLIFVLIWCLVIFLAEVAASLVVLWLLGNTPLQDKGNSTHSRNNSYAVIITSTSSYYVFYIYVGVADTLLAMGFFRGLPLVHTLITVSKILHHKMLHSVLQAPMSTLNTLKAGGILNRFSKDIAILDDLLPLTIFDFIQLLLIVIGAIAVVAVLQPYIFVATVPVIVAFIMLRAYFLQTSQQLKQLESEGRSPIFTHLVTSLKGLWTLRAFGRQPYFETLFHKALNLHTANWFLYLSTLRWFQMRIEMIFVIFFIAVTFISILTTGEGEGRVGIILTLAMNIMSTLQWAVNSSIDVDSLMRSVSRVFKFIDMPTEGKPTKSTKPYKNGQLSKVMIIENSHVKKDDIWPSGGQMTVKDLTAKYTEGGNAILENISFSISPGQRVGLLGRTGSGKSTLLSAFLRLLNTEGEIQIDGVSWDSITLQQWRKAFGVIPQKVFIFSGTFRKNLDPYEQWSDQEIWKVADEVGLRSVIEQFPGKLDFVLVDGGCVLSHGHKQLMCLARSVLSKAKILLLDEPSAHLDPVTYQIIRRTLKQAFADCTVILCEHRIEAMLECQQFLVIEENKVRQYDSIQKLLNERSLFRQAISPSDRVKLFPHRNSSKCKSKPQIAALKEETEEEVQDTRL

What is called EC50 is the concentration that produces a half-maximal response. On to `COc1ccc2c(c1)c1c(=O)n(CC(=O)N(C)c3ccc4nc(C)oc4c3)ncc1n2Cc1ccc(C#N)cc1` [Example 259, 2-(5-(4-cyanobenzyl)-8-methoxy-1-oxo-1,5-dihydro-2H-pyridazino[4,5-b]indol-2-yl)-N-methyl-N-(2-methylbenzo[d]oxazol-6-yl)acetamide], for which the Emax is greater than 80% and the EC50 was less than 10 µM.

In the case of `COc1ccc2c(c1)c1c(=O)n(CC(=O)N(C)c3ccc4nc(C)oc4c3)ncc1n2Cc1ccc(F)cc1` [Example 260, 2-(5-(4-fluorobenzyl)-8-methoxy-1-oxo-1,5-dihydro-2H-pyridazino[4,5-b]indol-2-yl)-N-methyl-N-(2-methylbenzo[d]oxazol-6-yl)acetamide], the Emax is greater than 80% and the EC50 was less than 10 µM.
